Assay results taken from PubChem BioAssay (NCI).
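Abbreviation: GI50, concentration required for 50% inhibition of growth. The concentration for full growth arrest is given as TGI.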

Experiments:
Assay in all cases: inhibition of tumour cell growth, NCI panel, 384-well format
[1] = test system: SN12C renal
[2] = test system: HCT-15 colon
[3] = test system: M14 melanoma
[4] = test system: NCI-H522 lung
[5] = test system: T-47D breast
[6] = test system: MOLT-4 leukemia
[7] = test system: UACC-257 melanoma
[8] = test system: NCI-H226 lung
[9] = test system: RPMI-8226 leukemia
[10] = test system: HOP-92 NSCLC
[11] = test system: HCC-2998 colon
[12] = test system: HOP-62 NSCLC
[13] = test system: MDA-MB-435 melanoma
[14] = test system: SF-268 CNS
[15] = test system: MDA-MB-468 breast
[16] = test system: HS 578T breast
[17] = test system: EKVX NSCLC
[18] = test system: SNB-75 CNS
[19] = test system: A498 renal
[20] = test system: UACC-62 melanoma
[21] = test system: NCI-H322M lung
[22] = test system: OVCAR-3 ovarian
[23] = test system: COLO 205 colon
[24] = test system: MCF7 breast
[25] = test system: ACHN renal
[26] = test system: U251 glioblastoma
[27] = test system: HL-60(TB) leukemia
[28] = test system: A549 NSCLC
[29] = test system: BT-549 breast
[30] = test system: PC-3 prostate
[31] = test system: LOX IMVI melanoma
[32] = test system: OVCAR-4 ovarian
[33] = test system: RXF 393 renal
[34] = test system: SK-MEL-5 melanoma
[35] = test system: SK-MEL-28 melanoma
[36] = test system: TK-10 renal
[37] = test system: SF-539 CNS
[38] = test system: MDA-MB-231 breast
[39] = test system: CAKI-1 renal
[40] = test system: NCI-H460 NSCLC
[41] = test system: SNB-19 CNS
[42] = test system: NCI/ADR-RES ovarian
[43] = test system: SR leukemia
[44] = test system: HCT-116 colon
[45] = test system: IGROV1 ovarian
[46] = test system: SK-OV-3 ovarian
[47] = test system: DU-145 prostate
[48] = test system: KM12 colon
[49] = test system: HT29 colon

## N#CCCNc1nonc1-c1nc2ccccc2n1CC(=O)c1ccc(N)cc1
[1]
  GI50: 12.2 nM
  TGI: 88.2 nM
[2]
  GI50: 16.7 nM
  TGI: 48.6 nM
[3]
  GI50: < 10 nM
  TGI: 21 nM
[4]
  GI50: < 10 nM
  TGI: < 10 nM
[5]
  GI50: 1870 nM
  TGI: > 100000 nM
[6]
  GI50: 19.2 nM
  TGI: 33.7 nM
[7]
  GI50: < 10 nM
  TGI: > 100000 nM
[8]
  GI50: < 10 nM
  TGI: 22.8 nM
[9]
  GI50: < 10 nM
  TGI: 22.2 nM
[10]
  GI50: 30.5 nM
  TGI: > 100000 nM
[11]
  GI50: 15 nM
  TGI: 47.5 nM
[12]
  GI50: < 10 nM
  TGI: 503 nM
[13]
  GI50: < 10 nM
  TGI: < 10 nM
[14]
  GI50: < 10 nM
  TGI: 51100 nM
[15]
  GI50: < 10 nM
  TGI: < 10 nM
[16]
  GI50: < 10 nM
  TGI: 11.4 nM
[17]
  GI50: < 10 nM
  TGI: > 100000 nM
[18]
  GI50: 12 nM
  TGI: > 100000 nM
[19]
  GI50: < 10 nM
  TGI: 36.5 nM
[20]
  GI50: < 10 nM
  TGI: > 100000 nM
[21]
  GI50: 53.1 nM
  TGI: > 100000 nM
[22]
  GI50: < 10 nM
  TGI: 14 nM
[23]
  GI50: 20.7 nM
  TGI: 56.6 nM
[24]
  GI50: < 10 nM
  TGI: > 100000 nM
[25]
  GI50: < 10 nM
  TGI: 37300 nM
[26]
  GI50: < 10 nM
  TGI: 40.7 nM
[27]
  GI50: < 10 nM
  TGI: 16 nM
[28]
  GI50: 22.7 nM
  TGI: > 100000 nM
[29]
  GI50: < 10 nM
  TGI: 35 nM
[30]
  GI50: 15.9 nM
  TGI: > 100000 nM
[31]
  GI50: 19 nM
  TGI: 44.2 nM
[32]
  GI50: < 10 nM
  TGI: 2330 nM
[33]
  GI50: < 10 nM
  TGI: 10300 nM
[34]
  GI50: < 10 nM
  TGI: 17 nM
[35]
  GI50: 101 nM
  TGI: > 100000 nM
[36]
  GI50: < 10 nM
  TGI: > 100000 nM
[37]
  GI50: < 10 nM
  TGI: 25.7 nM
[38]
  GI50: 59 nM
  TGI: > 100000 nM
[39]
  GI50: < 10 nM
  TGI: > 100000 nM
[40]
  GI50: < 10 nM
  TGI: 20 nM
[41]
  GI50: < 10 nM
  TGI: 92 nM
[42]
  GI50: < 10 nM
  TGI: < 10 nM
[43]
  GI50: < 10 nM
  TGI: < 10 nM
[44]
  GI50: < 10 nM
  TGI: > 100000 nM
[45]
  GI50: 19.5 nM
  TGI: 39300 nM
[46]
  GI50: < 10 nM
  TGI: > 100000 nM
[47]
  GI50: 20.8 nM
  TGI: 47.4 nM
[48]
  GI50: < 10 nM
  TGI: > 100000 nM
[49]
  GI50: 21 nM
  TGI: > 100000 nM
